Test results taken from patent publication US5646146A, “Heterocyclic compounds and their preparation and use” (Novo Nordisk A/S, priority 1993, dated 1997).

Key:
[1] = tested on: glycine site coupled to the NMDA ionophore complex; details: literature citations; cited from earlier work
[2] = target: T1, glycine site of the NMDA receptor complex (Rattus norvegicus, UniProt P35439); experiment: In vitro [3H]-glycine binding to rat brain membranes (Test 1); set-up: species or system rat (male Wistar); details: 50% displacement of specific [3H]-glycine binding; 50 nM [3H]-glycine, 4° C., 30 min
T1 construct: Crude synaptic (P2) membranes are prepared from rat forebrains; from tissue; host or cells: rat forebrain (male Wistar), crude synaptic (P2) membranes, Triton X-100 washed
Experimental: The compounds according to the invention were tested as regards the affinity for one or more of the different types of excitatory amino acid receptors and studied in simple radioligand binding experiments. In essence, the method involves incubation of a particular selected radio-labelled ligand and the particular specific substance to be investigated with brain homogenates which contain the receptor. Measurement of receptor occupancy is made by determination of the specific radioactivity bound to the homogenate.
This will make them useful in the treatment of any of the numerous indications caused by hyperactivity of excitatory amino acids.
The glycine site binding activity of these compounds of the present invention can be illustrated by determining their capability for displacing radioactively labelled glycine from the glycine site.
The displacement activity of the compounds may be shown by determining the IC50 value which represents the concentration (μM) which causes a displacement of 50% of the specific binding of [^3 H]-glycine.
In vitro [^3 H]-Glycine Binding to Rat Brain Membranes (Test 1)
The membrane preparation and assay of specific [^3 H]-glycine binding is based upon methodology described by Haring et al. (1991) J. Neurochem. 57, 323-332 and Yoneda et al. (1991) J. Neurochem. 55, 237-244.
All steps are performed at 4° C. Buffers are prepared fresh each week from distilled, deionized water and filtered through sterile 0.2 μm membranes to eliminate artifacts due to microbial contamination. Crude synaptic (P2) membranes are prepared from rat forebrains freshly dissected from male Wistar rats and washed 4 times with low ionic strength buffer. On the day of the assay these preparations are additionally washed with buffer containing a low concentration (0.08% g/g) of Triton X-100, and then twice more in the absence of this detergent. The procedure is aimed at the disruption of synaptic membrane vesicles and removal of endogenous amino acids.
Specific radioligand binding is measured by incubating membranes (400-600 μg/ml of protein) with 50 nM [^3 H]-glycine in the presence or absence of 1 mM of unlabelled glycine at 4° C. for 30 min. Free and bound ligand are separated by centrifugation. Each pellet is rinsed 2× and bound radioactivity measured by liquid scintillation counting. Test substances are substituted for Unlabelled glycine in the assay.

[3] = tested on: convulsions induced by i.c.v. infusion of NMDA; experiment: Convulsions induced by i.c.v. infusion of NMDA, TV50 (Test 2); format: in vivo, mouse (male NMRI); details: dose infused i.c.v. per minute with NMDA to increase time to onset of clonic seizures by 50%
Experimental: The glycine antagonists are co-infused with NMDA and their anti-convulsive effect is measured by determining a) the TV50 value which represents the dose (μg/kg) of the glycine antagonist that has to be infused per minute in order to increase time to onset of clonic seizures by 50%, b) the ED50 value which represents the dose (μg/kg) of the glycine antagonist that has to be infused per minute in order to protect 50% of the animals against clonic seizures for 150 seconds after the start of i.c.v. infusion.
Convulsions induced by i.c.v. infusion of NMDA (Test 2 & 3)
58.84 μg/ml (1 nmol in 2.5 μl) of NMDA (Sigma) dissolved in 0.9% NaCl is co-infused i.c.v. with a glycine antagonist at a speed of 5 μl/min. Infusion is performed through a cannula placed 1 mm posterior and 1 mm lateral to the Bregma point. The cannula is injected 4.3 mm into the skull of male NMRI mice weighing 25 g (range 23-27 g). Placement and length of the cannula into the skull is fixed by a plate positioned 4.3 mm from the point of the cannula. The infusion is stopped after the appearance of clonic seizures in all extremities or 150 seconds after the start time of the infusion. At least 5 doses of each glycine antagonist are tested using 8 mice per dose.

IC50 [2] [nM] | Compound | activity at the glycine site (agonist/antagonist, in words) [1] | Test 2 TV50 [3] [µg/kg]
– | N#Cc1cc2[nH]c(=O)c(=O)[nH]c2cc1[N+](=O)[O-] [CNQX, 6-cyano-7-nitroquinoxaline-2,3-dione] | weak antagonists | –
– | C[C@@H](N)C(=O)O [D-alanine] | strong agonist activity | –
– | N[C@@H]1CONC1=O [D-cycloserine] | partial agonists | –
– | N[C@H](CO)C(=O)O [D-serine] | strong agonist activity | –
920 | O=C1c2ccccc2-c2[nH]c(=O)c(=O)[nH]c21 [Example 2, 9H-Indeno[1,2-b]pyrazine-2,3,9(1H,4H)-trione] | – | 44
3700 | O=c1cnc2c([nH]1)-c1ccccc1C21OCCO1 [Example 6, 9H-Indeno[1,2-b]pyrazine-3,9(4H)-dione 9-ethylene acetal] | – | –
– | O=C(O)c1cc(O)c2ccc(Cl)cc2n1 [Example 7-Cl-Kyn, 7-chloro-kynurenic acid] | quite strong antagonists | –
920 | O=c1[nH]c2c([nH]c1=O)C(O)c1ccccc1-2 (stereo not shown) [Example 11, 9-Hydroxy-9H-indeno[1,2-b]pyrazine-2,3(1H,4H) -dione] | – | 5.0
150 | CN1CCN(C2c3ccccc3-c3[nH]c(=O)c(=O)[nH]c32)CC1 (stereo not shown) [Example 18, 9-(4-Methyl-1-piperazinyl)-9H-indeno[1,2-b]pyrazine-2,3(1H,4H)-dione] | – | 4.5
– | NC1CCN(O)C1=O (stereo not shown) [HA-966, 3-amino-1-hydroxy-2-pyrrolidone] | weak antagonists | –
